Data on 29 compounds can be found in patent US9504675B2, “Alpha-ketoheterocycles and methods of making and using” (The Scripps Research Institute, priority 2011, dated 2016).

The first experiment addresses T1, recombinant rat FAAH (rFAAH) (Rattus norvegicus, UniProt P97612).
T1 construct: The truncated rat FAAH (rFAAH) was expressed in E. coli and purified; made in house; host or cells: Escherichia coli
T1 sequence (P97612 30-579 limits assumed): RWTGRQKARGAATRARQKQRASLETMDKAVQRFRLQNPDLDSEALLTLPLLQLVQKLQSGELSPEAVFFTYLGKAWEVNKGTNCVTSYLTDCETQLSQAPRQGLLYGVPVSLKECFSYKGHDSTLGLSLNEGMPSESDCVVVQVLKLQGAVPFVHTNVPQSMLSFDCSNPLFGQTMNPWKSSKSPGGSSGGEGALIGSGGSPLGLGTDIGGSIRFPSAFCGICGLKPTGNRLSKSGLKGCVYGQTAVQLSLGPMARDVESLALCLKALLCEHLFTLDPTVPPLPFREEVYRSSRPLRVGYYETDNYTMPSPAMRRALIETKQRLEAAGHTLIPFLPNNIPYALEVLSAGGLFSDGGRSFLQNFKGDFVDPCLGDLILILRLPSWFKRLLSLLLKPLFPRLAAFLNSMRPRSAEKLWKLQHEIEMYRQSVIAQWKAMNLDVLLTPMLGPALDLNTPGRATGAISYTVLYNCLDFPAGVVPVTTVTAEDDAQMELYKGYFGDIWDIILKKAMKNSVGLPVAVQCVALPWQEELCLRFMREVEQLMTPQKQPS
The experiment is described as follows: Enzyme assay: inhibition of purified recombinant rat FAAH, 14C-oleamide hydrolysis, Ki by Dixon plot. The class given is biochemical. Particulars: Ki, Table 2, (R)-enantiomer, 1,2,3,4-tetrahydronaphthalene C2 acyl side chain. The protocol:
Enzyme assays were performed at 20-23° C. with purified recombinant rat FAAH expressed in Escherichia coli or with solubilized COS-7 membrane extracts from cells transiently transfected with human FAAH cDNA (where specifically indicated) in a buffer of 125 mM Tris/1 mM EDTA/0.2% glycerol/0.02% Triton X-100/0.4 mM Hepes, pH 9.0.
^14C-labeled oleamide was prepared from ^14C-labeled oleic acid. The truncated rat FAAH (rFAAH) was expressed in E. coli and purified. The purified recombinant rFAAH was used in the inhibition assays unless otherwise indicated. The full-length human FAAH (hFAAH) was expressed in COS-7 cells as described, and the lysate of hFAAH-transfected COS-7 cells was used in the inhibition assays where explicitly indicated.
The inhibition assays were performed as follows. […] The enzyme reaction was terminated by transferring 20 μL of the reaction mixture to 500 μL of 0.1 N HCl at three different time points. The ^14C-labeled oleamide (substrate) and oleic acid (product) were extracted with EtOAc and analyzed by TLC as detailed. The Ki of the inhibitor was calculated using a Dixon plot as described (standard deviations are provided in the Supporting Information tables).
With `COC(=O)c1cnc(C(=O)C2CCc3cc(OCc4ccccc4)ccc3C2)o1` (single isomer, unassigned) [(R)-16, Methyl 2-(6-(Benzyloxy)-1,2,3,4-tetrahydronaphthalene-2-carbonyl)oxazole-5-carboxylate], the inhibition constant Ki was 0.053 µM.
The same measure, in the same setting: next, `O=C(c1ncco1)C1CCc2cc(Oc3ccccc3)ccc2C1` (single isomer, unassigned) [(R)-9, Oxazol-2-yl(6-phenoxy-1,2,3,4-tetrahydronaphthalen-2-yl)methanone]: 0.41 µM.
Regarding `O=C(c1ncc(-c2ccccn2)o1)C1CCc2cc(-c3ccccc3)ccc2C1` (single isomer, unassigned) [(R)-6, (6-Phenyl-1,2,4-tetrahydronaphthalen-2-yl)(5-(pyridin-2-yl)oxazol-2-yl)methanone], the inhibition constant (Ki) amounted to 0.24 µM.
`COC(=O)c1cnc(C(=O)C2CCc3cc(Oc4ccccc4)ccc3C2)o1` (single isomer, unassigned) [(R)-10, Methyl 2-(6-Phenoxy-1,2,3,4-tetrahydronaphthalene-2-carbonyl)oxazole-5-carboxylate]: the inhibition constant (Ki) turned out to be 0.059 µM.
On the same count and under the same terms, next, `O=C(O)c1cccc(-c2cnc(C(=O)C3CCc4cc(OCc5ccccc5)ccc4C3)o2)n1` (single isomer, unassigned) [(R)-20, 6-(2-(6-(Benzyloxy)-1,2,3,4-tetrahydronaphthalene-2-carbonyl)oxazol-5-yl)picolinic acid]: 0.74 µM; `O=C(O)c1cccc(-c2cnc(C(=O)C3CCc4cc(Oc5ccccc5)ccc4C3)o2)n1` (single isomer, unassigned) [(R)-14, 6-(2-(6-Phenoxy-1,2,3,4-tetrahydronaphthalene-2-carbonyl)oxazol-5-yl)picolinic acid]: 0.22 µM; `COC(=O)c1cccc(-c2cnc(C(=O)C3CCc4cc(OCc5ccccc5)ccc4C3)o2)n1` (single isomer, unassigned) [(R)-19, Methyl 6-(2-(6-(Benzyloxy)-1,2,3,4-tetrahydronaphthalene-2-carbonyl)oxazol-5-yl)picolinate]: 4.5 µM.
Take `O=C(c1ncco1)C1CCc2cc(-c3ccccc3)ccc2C1` (single isomer, unassigned) [(R)-3, Oxazol-2-yl(6-phenyl-1,2,3,4-tetrahydronaphthalen-2-yl)methanone]: the Ki came out at 0.46 µM.
The same measure, in the same setting: next, `N#Cc1cnc(C(=O)C2CCc3cc(-c4ccccc4)ccc3C2)o1` (single isomer, unassigned) [(R)-5, 2-(6-Phenyl-1,2,3,4-tetrahydronaphthalene-2-carbonyl)oxazole-5-carbonitrile]: 0.062 µM; `O=C(c1ncco1)C1CCc2cc(OCc3ccccc3)ccc2C1` (single isomer, unassigned) [(R)-15, (6-(Benzyloxy)-1,2,3,4-tetrahydronaphthalen-2-yl)(oxazol-2-yl)methanone]: 0.087 µM.
Consider `COC(=O)c1cccc(-c2cnc(C(=O)C3CCc4cc(Oc5ccccc5)ccc4C3)o2)n1` (single isomer, unassigned) [(R)-13, Methyl 6-(2-(6-Phenoxy-1,2,3,4-tetrahydronaphthalene-2-carbonyl)oxazol-5-yl)picolinate], for which the Ki is 0.87 µM.

The same experiment, now with this note: Ki, Table 2, (S)-enantiomer, 1,2,3,4-tetrahydronaphthalene C2 acyl side chain.
`COC(=O)c1cccc(-c2cnc(C(=O)C3CCc4cc(Oc5ccccc5)ccc4C3)o2)n1` (single isomer, unassigned) [(S)-13, Methyl 6-(2-(6-Phenoxy-1,2,3,4-tetrahydronaphthalene-2-carbonyl)oxazol-5-yl)picolinate]: the inhibition constant Ki was 0.0022 µM.
For the compound `N#Cc1cnc(C(=O)C2CCc3cc(-c4ccccc4)ccc3C2)o1` (single isomer, unassigned) [(S)-5, 2-(6-Phenyl-1,2,3,4-tetrahydronaphthalene-2-carbonyl)oxazole-5-carbonitrile], the Ki was determined as 0.0034 µM.
Consider `O=C(O)c1cccc(-c2cnc(C(=O)C3CCc4cc(Oc5ccccc5)ccc4C3)o2)n1` (single isomer, unassigned) [(S)-14, 6-(2-(6-Phenoxy-1,2,3,4-tetrahydronaphthalene-2-carbonyl)oxazol-5-yl)picolinic acid], for which the Ki worked out at 0.025 µM.
Consider `O=C(O)c1cccc(-c2cnc(C(=O)C3CCc4cc(-c5ccccc5)ccc4C3)o2)n1` (single isomer, unassigned) [(S)-8, 6-(2-(6-Phenyl-1,2,3,4-tetrahydronaphthalene-2-carbonyl)oxazol-5-yl)picolinic acid], for which the Ki was 0.039 µM.
As to `COC(=O)c1cccc(-c2cnc(C(=O)C3CCc4cc(-c5ccccc5)ccc4C3)o2)n1` (single isomer, unassigned) [(S)-7, Methyl 6-(2-(6-Phenyl-1,2,3,4-tetrahydronaphthalene-2-carbonyl)oxazol-5-yl)picolinate], the Ki was 0.027 µM.

The same experiment, now with this note: Ki, Table 3, (R)-enantiomer, indane C2 acyl side chain.
Turning to `O=C(c1ncco1)C1Cc2ccc(-c3ccccc3)cc2C1` (single isomer, unassigned) [(R)-22, Oxazol-2-yl(5-phenylindan-2-yl)methanone], the inhibition constant (Ki) came out at 0.14 µM.
Still for that read-out and setting: next, `O=C(c1ncc(-c2ccccn2)o1)C1Cc2ccc(-c3ccccc3)cc2C1` (single isomer, unassigned) [(R)-23, (5-Phenylindan-2-yl)-(5-(pyridin-2-yl)oxazol-2-yl)methanone]: 0.6 µM; `COC(=O)c1cccc(-c2cnc(C(=O)C3Cc4ccc(Oc5ccccc5)cc4C3)o2)n1` (single isomer, unassigned) [(R)-28]: 0.79 µM.

The experiment is the same for the next values; noted with them: Ki, Table 3, racemate (enantiomers not separable), indane C2 acyl side chain.
With `O=C(O)c1cccc(-c2cnc(C(=O)C3Cc4ccc(-c5ccccc5)cc4C3)o2)n1` (racemic) [Compound 25, 6-[2-(5-Phenylindane-2-carbonyl)oxazol-5-yl]pyridine-2-carboxylic Acid], the Ki was found to be 0.057 µM.

The same experiment, now with this note: Ki, Table 3, tentatively assigned (S)-enantiomer, indane C2 acyl side chain.
With `O=C(c1ncco1)C1Cc2ccc(Oc3ccccc3)cc2C1` (single isomer, unassigned) [(S)-26, Oxazol-2-yl(5-phenoxyindan-2-yl)methanone], the inhibitory constant (Ki) came to 0.01 µM.
Still for that read-out and setting: in the case of `COC(=O)c1cccc(-c2cnc(C(=O)C3Cc4ccc(OCc5ccccc5)cc4C3)o2)n1` (single isomer, unassigned) [(S)-32, Methyl 6-(2-(5-(Benzyloxy)indane-2-carbonyl)oxazol-5-yl)picolinate] it was 0.0058 µM; in that of `O=C(c1ncco1)C1Cc2ccc(-c3ccccc3)cc2C1` (single isomer, unassigned) [(S)-22, Oxazol-2-yl(5-phenylindan-2-yl)methanone], 0.027 µM.

Staying with this experiment, now noted: Ki, Table 4, (R)-enantiomer, additional FAAH inhibitors.
With `O=C(c1nnc(-c2ccccn2)o1)C1CCc2cc(Oc3ccccc3)ccc2C1` (single isomer, unassigned) [(R)-36, (6-Phenoxy-1,2,3,4-tetrahydronaphthalen-2-yl)(5-(pyridin-2-yl)-1,3,4-oxadiazol-2-yl)methanone], the Ki worked out at 0.0063 µM.

Still in this experiment, the particulars now being: Ki, Table 4, (S)-enantiomer, additional FAAH inhibitors.
For `O=C(c1nnc(-c2ccccn2)o1)C1CCc2cc(Oc3ccccc3)ccc2C1` (single isomer, unassigned) [(S)-36, (6-Phenoxy-1,2,3,4-tetrahydronaphthalen-2-yl)(5-(pyridin-2-yl)-1,3,4-oxadiazol-2-yl)methanone], the inhibition constant (Ki) worked out at 0.001 µM.
As to `O=C(c1nnco1)C1CCc2cc(Oc3ccccc3)ccc2C1` (single isomer, unassigned) [(S)-34, (1,3,4-Oxadlazol-2-yl)(6-phenoxy-1,2,3,4-tetrahydronaphthalen-2-yl)methanone], the inhibitory constant (Ki) turned out to be 0.0005 µM.
Consider `COC(=O)c1nnc(C(=O)C2CCc3cc(Oc4ccccc4)ccc3C2)o1` (single isomer, unassigned) [(S)-35, Methyl 5-(6-Phenoxy-1,2,3,4-tetrahydronaphthalene-2-carbonyl)-[1,3,4]oxadiazole-2-carboxylate], for which the inhibitory constant (Ki) amounted to 0.0015 µM.

Still in this experiment, the particulars now being: Table 3, racemate (enantiomers not separable), indane C2 acyl side chain; read-out: Ki.
On to `O=C(c1ncco1)C1Cc2ccc(OCc3ccccc3)cc2C1` (racemic) [Compound 30, (5-(Benzyloxy)indan-2-yl)(oxazol-2-yl)methanone], for which the Ki amounted to 0.024 µM.

The same experiment, now with this note: ratio of FAAH inhibition between enantiomers.
`O=C(c1ncc(I)o1)C1CCc2cc(OCc3ccccc3)ccc2C1` (centres unmarked) [Compound 21, (6-(Benzyloxy)-1,2,3,4-tetrahydronaphthalen-2-yl)(5-iodooxazol-2-yl)methanone]: the “potency of more active (S)-enantiomer over (R)-enantiomer” value is listed as “ca. 200 fold”.

By Ki is commonly meant the dissociation constant of the complex between target and ligand, obtained from inhibition or displacement.
